Results published in US11471472B2, “Use of verbascoside in preparation of drug for preventing or treating glomerular podocyte injured renal disease” (SICHUAN MEDCO PHARMACEUTICAL STOCK CO., LTD., priority 2017, dated 2022).

Key:
[1] = system: rats suffering from puromycin-caused nephropathy; assay: 24-hour urine protein in rats suffering from puromycin-caused nephropathy; format: in vivo, Sprague-Dawley rats; conditions: 10 mg/kg verbascoside intragastrically every day
Description: (§1) The animal experiment was approved by Animal Ethics Committee of Peking University First Hospital, with Resolution No.: J201644. 51 male Sprague-Dawley rats (6 weeks) of the same batch were purchased from Beijing Charles River Company, raised at the animal center of Peking University First Hospital (clean grade), and randomly divided into 3 groups after 3 days of acclimation:
1. normal control group (CON)
2. puromycin disease group (PAN)
3. puromycin+verbascoside-treated group (PAN+ACT)
(§2) In the above, groups 2 and 3 were intraperitoneally subjected to single injection of puromycin (Sigma P7130) by 15 mg/100 g at day 0 of the experiment. The normal control group was intraperitoneally injected with the same dosage of physiological saline. Group 3 was intragastrically treated with 10 mg/kg verbascoside every day, and groups 1 and 2 were intragastrically treated with the same dosage of injection water every day. In the experiment process, 24-hour urine of the rats was collected respectively before the administration (Day 0), and at the 5th day, the 10th day, the 15th day, and the 20th day (Day 5, Day 10, Day 15, and Day 20) after the administration, for quantitative measurement of urine protein (Hitachi 7170A full-automatic biochemical analyzer). The rats were sacrificed at the 20th day (Day 20) after the injection of puromycin, and kidney specimens were collected, which were subsequently used for extracting protein, extracting RNA, taking paraffin-embedded and frozen specimens, and separating glomeruli.
In order to determine the therapeutic effect of verbascoside on the rats suffering from puromycin-caused nephropathy, the rats were divided into 3 groups, normal control group (CON), disease group (PAN), and verbascoside group (PAN+ACT). 24-hour urine of the rats in each group were sampled every 5 days. The effect of verbascoside for treating the nephropathic proteinuria level was reflected by collecting and detecting blood and urine samples of the rats in each group.

podocyte foot process = assay: Podocyte foot process under electron microscope in puromycin-induced nephropathic rat models; format: in vivo, Sprague-Dawley rats; conditions: 20th day; 10 mg/kg intragastrically every day
Method: as §1
as §2, with “The rats were sacrificed at the 20th day (Day 20) after the injection of puromycin, and kidney specimens were collected, which were subsequently used for extracting protein, extracting RNA, taking paraffin-embedded and frozen specimens, and separating glomeruli.” left out

synaptopodin = assay: Synaptopodin immunofluorescence of kidney tissue in puromycin-induced nephropathic rats; format: in vivo, Sprague-Dawley rats; conditions: 20th day, 10 mg/kg intragastrically every day
Method: as §1
as §2, with “The rats were sacrificed at the 20th day (Day 20) after the injection of puromycin, and kidney specimens were collected, which were subsequently used for extracting protein, extracting RNA, taking paraffin-embedded and frozen specimens, and separating glomeruli.” left out
(§3) The kidney tissue was sliced. […] The mixture was rinsed with deionized water, mounted with 50% buffered glycerol, edge sealed with nail polish, observed under a fluorescence microscope, and photographed. […]

nephrin [2] = assay: Nephrin gene and protein expression in glomeruli of puromycin-induced nephropathic rats (western, real-time quantitative PCR); format: in vivo, Sprague-Dawley rats; conditions: 20th day, 10 mg/kg intragastrically every day
Method: as §1
as §2, with “The rats were sacrificed at the 20th day (Day 20) after the injection of puromycin, and kidney specimens were collected, which were subsequently used for extracting protein, extracting RNA, taking paraffin-embedded and frozen specimens, and separating glomeruli.” left out

mouse podocyte line MPC5 [3] = assay: Detection of podocyte activity with MTS in puromycin-induced podocyte damage; format: cell-based; conditions: 24 h
Method: (§4) A mouse podocyte line MPC5 was offered by professor Peter Mundel from Mount Sinai Medical School, New York, USA. After recovery, podocytes were placed in a 33° C., 5% CO2 cell incubator to be cultured for proliferation thereof. When a fusion degree thereof reached about 80%, the podocytes were transferred into a 37° C. incubator to be differentiated for 10-14 days such that the podocytes were differentiated to be mature. After the podocytes were differentiated to be mature, the podocytes were inoculated in a 6-well plate, and after the podocytes adhered to the wall, puromycin and verbascoside were added into the plate to stimulate the podocytes for 24 hours, and then proteins or RNAs were collected for later detection.
After subculturing and counting the podocytes, the podocytes were uniformly inoculated into a 96-well plate at a density of 1.0×10^5/mL, after the cells adhered to the wall, puromycin and verbascoside were respectively added to treat the podocytes, then after 24 h, the culture medium was discarded, a culture medium containing MTS (Promega G1112) was added with the MTS content of 10 μl MTS per 100 μl of the culture medium, the 96-well plate added with the MTS was placed in a light-tight environment at 37° C. for 4 h and then taken out, and an OD value was measured at 490 nm wavelength using the ELIASA.

mouse podocyte line MPC5 [4] = assay: Cell migration (scratch) experiment in puromycin-treated podocytes; format: cell-based; conditions: 24 hours after scratch
Method: as §4
The differentiated podocytes were inoculated on a 6-well plate coated with rat type I collagen, and when the fusion degree thereof reached 60%, a line was scratched on a baseboard using a 200 μL sterile high-pressure gun tip, then the plate was flushed clean using PBS and a clean culture medium was used in replacement, which time was served as the 0th hour, and a photo was taken by an inverted microscope, then a corresponding drug was added for intervention, then after 24 hours, a photo was taken again, and finally analysis was made using ImageJ software. The final result was expressed by percentage of coverage.

nephrin [5] = assay: Nephrin protein expression in puromycin-induced podocyte damage (western blot); format: cell-based, mouse; conditions: 24 hours
Method: as §4, with “detection. […]” for “detection.”

mouse podocyte line MPC5 [6] = assay: Phalloidin staining of podocyte cytoskeletal microfilamentous proteins; format: cell-based; conditions: puromycin-treated podocytes
Method: as §4
as §3, with “sliced. First, slices were subjected to xylene and gradient alcohol deparaffinization, followed by antigen retrieval, and then punched with 0.3% Triton-PBS.” for “sliced.”

## Verbascoside
[1]; 5th day, puromycin 15 mg/100 g i.p.
  24-hour urine protein vs puromycin group: not significantly different
[1]; 10th day, puromycin 15 mg/100 g i.p.
  24-hour urine protein vs disease group: decreased significantly
[1]; 15th day
  24-hour proteinuria abnormality: remarkably relieved
[1]; 20th day
  24-hour proteinuria abnormality: remarkably relieved
Podocyte foot process
  podocyte foot process fusion (electron microscope): recovered apparently
synaptopodin
  synaptopodin fluorescence intensity: recovered
Nephrin [2]
  nephrin gene expression level (real-time quantitative PCR): increased
  nephrin protein expression level (western): increased
Mouse podocyte line MPC5 [3]
  podocyte viability (MTS, OD 490 nm): recovered
Mouse podocyte line MPC5 [4]
  podocyte migration capability (percentage of coverage): restored
Nephrin [5]
  nephrin expression (protein): improved
Mouse podocyte line MPC5 [6]
  arrangement of the cytoskeletons (phalloidin): restored
